Consider one compound from patent US6455582B1, “Sulohydroxamic acids and sulohyroxamates and their use as MEK inhibitors” (Warner-Lambert Company, priority 1999, dated 2002).

The assay concerns the target GST-MEK / GST-MAPK (p45MEK, p44MAP kinase) cascade. Briefly: Cascade assay for inhibitors of the MAP kinase pathway (APK). The assay is classed as biochemical. The procedure: Cascade assay for inhibitors of the MAP kinase pathway
Incorporation of ^32P into myelin basic protein (MBP) is assayed in the presence of a glutathione S-transferase fusion protein containing p44MAP kinase (GST-MAPK) and a glutathione S-transferase fusion protein containing p45MEK (GST-MEK). The assay solution contains 20 mM HEPES, pH 7.4, 10 mM MgCl2, 1 mM MnCl2, 1 mM EGTA, 50,μM [γ-^32P]ATP, 10 μg GST-MEK, 0.5 μg GST-MAPK and 40 μg MBP in a final volume of 100 μL. Reactions are stopped after 20 minutes by addition of trichloroacetic acid and filtered through a GF/C filter mat. ^32P retained on the filter mat is determined using a 120S Betaplate. Compounds are assessed at 10 μM for ability to inhibit incorporation of ^32P
To ascertain whether compounds are inhibiting GST-MEK or GST MAPK, two additional protocols are employed. In the first protocol, compounds are added to tubes containing GST-MEK, followed by addition of GST-MAPK, MBP and [γ-^32P]ATP. In the second protocol, compounds are added to tubes containing both GST-MEK and GST-MAPK, followed by MBP and [γ-^32P]ATP.
Compounds that show activity in both protocols are scored as MAPK inhibitors, while compounds showing activity in only the first protocol are scored as MEK inhibitors.

As for `O=S(=O)(NOCC1CC1)c1ccc(F)c(F)c1Nc1ccc(I)cc1Cl` [PD 0297447, 2-(2-Chloro-4-iodo-phenylamino)-N-cyclopropylmethoxy-3,4-difluoro-benzenesulfonamide], 965 nM corresponded to half-maximal inhibition (IC50).
